# Source: US20240166626A1, “Compounds and Methods for Preventing, Treating, or Ameliorating Airway Disease” (THOMAS JEFFERSON UNIVERSITY, priority 2021, published 2024)
# Biological target: β2AR (Homo sapiens, UniProt P07550)
# Assay: BRET analysis of β-arrestin2 binding to the β2AR in HEK 293 cells
# Format: cell-based
# Method: Schematic of screening methodologies for cAMP production and β-arrestin binding. Cells were treated with the unbiased beta-agonist isoproterenol (ISO)±test compounds. The primary high throughput screen utilized a luciferase-based cAMP biosensor, GLOSENSORTM (Promega), and an enzyme complementation-based assay, […]® (DiscoveRx). Independent secondary screening utilized a cAMP ELISA and BRET for β-arrestin recruitment. […] Secondary screen for cAMP production by ELISA. […] Cells were lysed and cAMP production was measured. […] Dose response curve for DFPQ as measured by BRET. […] Data for dose response curve was taken 12 min post ISO addition. n=3. […] Cells were lysed and cAMP production was measured by ELISA. […] Cells were read every 2 min post agonist addition. […] Cells were read every three minutes for 18 minutes on a PolarStar Optima plate reader (BMG) to establish peak signal. […] Luminescence was determined at room temperature (23-25° C.) on a PolarStar Optima plate reader (BMG). […] Relative assay bias was calculated from the ratio of normalized cAMP and arrestin recruitment responses. […] BRET was measured using a Tecan Infinite F500 microplate reader. […] Bound [35 S]GTPγS was collected by rapid filtration on GF/B filters, washed 4 times with 4 ml of cold GTPγS wash buffer and analyzed by liquid scintillation counting. […] Band intensity was measured by densitometry using ImageJ. […]
# Chain of β2AR (P07550 whole entry): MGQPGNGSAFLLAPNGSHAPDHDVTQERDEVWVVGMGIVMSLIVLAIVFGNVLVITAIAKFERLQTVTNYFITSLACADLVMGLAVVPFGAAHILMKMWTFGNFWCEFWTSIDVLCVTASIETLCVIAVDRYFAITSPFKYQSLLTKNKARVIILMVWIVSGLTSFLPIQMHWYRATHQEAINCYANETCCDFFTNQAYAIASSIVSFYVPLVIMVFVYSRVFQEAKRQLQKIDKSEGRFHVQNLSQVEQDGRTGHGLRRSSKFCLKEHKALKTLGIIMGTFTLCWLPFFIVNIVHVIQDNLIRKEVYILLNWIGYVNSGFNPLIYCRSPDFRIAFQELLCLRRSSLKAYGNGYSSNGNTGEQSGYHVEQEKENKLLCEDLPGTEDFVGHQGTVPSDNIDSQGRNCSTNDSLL
smiles,measurement,setting,value
"Fc1ccc(Nc2nc(NC3CCCCC3)c3ccccc3n2)cc1F [DFPQ, N^4-cyclohexyl-N^2-(3,4-difluorophenyl)quinazoline-2,4-diamine]",β-arrestin2 recruitment to the β2AR,"10 μM DFPQ, over the measured time course, FIG. 2A",fully inhibited
same,"mode of inhibition, global curve fitting and Schild analysis of ISO dose response curves","β-arrestin recruitment readout, FIG. 1D",non-competitive inhibition
